Measurements from ChEMBL document CHEMBL5665443, “Enzyme Inhibitor Single Concentration assay results for EUbOPEN Chemogenomics Library” (2024).

Key:
[1] = molecular target: N-glycosylase/DNA lyase (Homo sapiens) (UniProt O15527);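 further: OGG1 cleavage of a quenched duplex DNA oligonucleotide, coupled to APE1 for strand incision, read as fluorescence at 594 nm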
Description: Inhibition of OGG1 by quantifying inhibition of OGG1-mediated cleavage and dissociation of quenched duplex DNA oligonucleotides, measured as fluorescence at 594 nm. To generate a functional strand incision and increase turn-over this assay is coupled to APE1.

[2] = molecular target: T1, Endonuclease III-like protein 1 (Homo sapiens) (UniProt P78549); settings: Hit No;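 further: enzyme assay tracking NTHL1 cutting and release of a quenched double-stranded DNA oligo substrate, read as fluorescence at 594 nm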
T1 sequence (whole entry): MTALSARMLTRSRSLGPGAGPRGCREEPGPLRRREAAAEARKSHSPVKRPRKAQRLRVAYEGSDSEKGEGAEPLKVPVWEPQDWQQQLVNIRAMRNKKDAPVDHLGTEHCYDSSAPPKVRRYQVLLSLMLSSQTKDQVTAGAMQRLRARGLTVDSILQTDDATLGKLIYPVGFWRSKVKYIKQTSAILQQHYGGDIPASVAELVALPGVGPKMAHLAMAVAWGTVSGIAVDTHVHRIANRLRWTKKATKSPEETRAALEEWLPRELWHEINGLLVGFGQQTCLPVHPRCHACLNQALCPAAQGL
Description: Inhibition of NTHL1 by quantifying inhibition of NTHL1-mediated cleavage and dissociation of quenched duplex DNA oligonucleotides, measured as fluorescence at 594 nm.

[3] = molecular target: T2, Single-strand selective monofunctional uracil DNA glycosylase (Homo sapiens) (UniProt Q53HV7); settings: Hit No;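 further: enzymatic SMUG1 assay coupled with APE1, reading fluorescence at 594 nm released when a quenched double-stranded DNA oligonucleotide substrate is cleaved and separated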
T2 sequence (whole entry): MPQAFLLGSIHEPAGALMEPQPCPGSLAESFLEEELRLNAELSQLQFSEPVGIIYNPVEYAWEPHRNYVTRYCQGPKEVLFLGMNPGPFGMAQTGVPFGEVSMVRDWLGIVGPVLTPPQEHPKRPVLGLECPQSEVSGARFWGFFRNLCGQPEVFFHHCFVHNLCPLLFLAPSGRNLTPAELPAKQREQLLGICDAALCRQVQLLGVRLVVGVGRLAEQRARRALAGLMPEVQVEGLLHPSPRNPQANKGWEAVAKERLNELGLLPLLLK
Description: Inhibition of SMUG1 by quantifying inhibition of SMUG1-mediated cleavage and dissociation of quenched duplex DNA oligonucleotides, measured as fluorescence at 594 nm. To generate a functional strand incision and increase turn-over this assay is coupled to APE1.

[4] = molecular target: Endonuclease 8-like 1 (Homo sapiens) (UniProt Q96FI4); settings: Hit No;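 further: fluorescence at 594 nm from quenched duplex DNA oligonucleotides released by NEIL1 cleavage and strand separation, reported as reduction of this enzyme activity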
Description: Inhibition of NEIL1 by quantifying inhibition of NEIL1-mediated cleavage and dissociation of quenched duplex DNA oligonucleotides, measured as fluorescence at 594 nm.

[5] = molecular target: G/T mismatch-specific thymine DNA glycosylase (Homo sapiens) (UniProt Q13569); settings: Hit No;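 further: human TDG cleavage of quenched duplex DNA oligonucleotides coupled to APE1, strand release read as fluorescence at 594 nm, inhibition of TDG activity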
Description: Inhibition of TDG by quantifying inhibition of TDG-mediated cleavage and dissociation of quenched duplex DNA oligonucleotides, measured as fluorescence at 594 nm. To generate a functional strand incision and increase turn-over this assay is coupled to APE1.

[6] = molecular target: Methyl-CpG-binding domain protein 4 (Homo sapiens) (UniProt O95243); settings: Hit No;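 further: MBD4 activity read as fluorescence at 594 nm from cleavage and release of a quenched duplex DNA oligonucleotide, with APE1 coupled to incise the strand and raise turnover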
Description: Inhibition of MBD4 by quantifying inhibition of MBD4-mediated cleavage and dissociation of quenched duplex DNA oligonucleotides, measured as fluorescence at 594 nm. To generate a functional strand incision and increase turn-over this assay is coupled to APE1.

[7] = molecular target: T3, Endonuclease 8-like 2 (Homo sapiens) (UniProt Q969S2); settings: Hit No;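 further: fluorescence at 594 nm reports NEIL2 cutting and release of a quenched double-stranded DNA oligo substrate, reduced signal read as inhibition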
T3 sequence (whole entry): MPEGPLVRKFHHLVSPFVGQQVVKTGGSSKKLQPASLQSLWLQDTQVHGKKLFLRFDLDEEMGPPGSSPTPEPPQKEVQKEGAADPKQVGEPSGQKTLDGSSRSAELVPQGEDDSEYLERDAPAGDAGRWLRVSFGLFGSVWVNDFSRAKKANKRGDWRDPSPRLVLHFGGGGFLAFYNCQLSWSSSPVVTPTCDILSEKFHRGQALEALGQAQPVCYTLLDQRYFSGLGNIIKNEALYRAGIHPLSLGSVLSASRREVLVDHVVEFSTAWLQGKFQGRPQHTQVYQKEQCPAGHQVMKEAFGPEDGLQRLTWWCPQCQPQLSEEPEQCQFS
Description: Inhibition of NEIL2 by quantifying inhibition of NEIL2-mediated cleavage and dissociation of quenched duplex DNA oligonucleotides, measured as fluorescence at 594 nm.

[8] = molecular target: Uracil-DNA glycosylase (Homo sapiens) (UniProt P13051); settings: Hit No;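 further: UNG excision on a quenched double-stranded DNA oligo probe, with APE1 added for strand incision and turnover, read as fluorescence at 594 nm as strands separate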
Description: Inhibition of UNG by quantifying inhibition of UNG-mediated cleavage and dissociation of quenched duplex DNA oligonucleotides, measured as fluorescence at 594 nm. To generate a functional strand incision and increase turn-over this assay is coupled to APE1.

[9] = Compound Concentration 1.0 uM, Hit No
[10] = Compound Concentration 10.0 uM, Hit No

Sequence of Endonuclease 8-like 1 (Homo sapiens) (Q96FI4 whole entry): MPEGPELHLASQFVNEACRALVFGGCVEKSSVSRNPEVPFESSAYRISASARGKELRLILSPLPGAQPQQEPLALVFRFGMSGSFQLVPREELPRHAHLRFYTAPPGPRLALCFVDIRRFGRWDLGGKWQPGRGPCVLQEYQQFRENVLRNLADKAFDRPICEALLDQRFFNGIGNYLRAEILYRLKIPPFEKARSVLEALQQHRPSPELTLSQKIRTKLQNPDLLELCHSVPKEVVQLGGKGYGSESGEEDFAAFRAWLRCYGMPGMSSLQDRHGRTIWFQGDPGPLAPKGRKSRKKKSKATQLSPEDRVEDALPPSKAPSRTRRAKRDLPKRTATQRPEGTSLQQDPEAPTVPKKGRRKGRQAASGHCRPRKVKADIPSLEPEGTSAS
Sequence of G/T mismatch-specific thymine DNA glycosylase (Homo sapiens) (Q13569 whole entry, the tested form may be a part): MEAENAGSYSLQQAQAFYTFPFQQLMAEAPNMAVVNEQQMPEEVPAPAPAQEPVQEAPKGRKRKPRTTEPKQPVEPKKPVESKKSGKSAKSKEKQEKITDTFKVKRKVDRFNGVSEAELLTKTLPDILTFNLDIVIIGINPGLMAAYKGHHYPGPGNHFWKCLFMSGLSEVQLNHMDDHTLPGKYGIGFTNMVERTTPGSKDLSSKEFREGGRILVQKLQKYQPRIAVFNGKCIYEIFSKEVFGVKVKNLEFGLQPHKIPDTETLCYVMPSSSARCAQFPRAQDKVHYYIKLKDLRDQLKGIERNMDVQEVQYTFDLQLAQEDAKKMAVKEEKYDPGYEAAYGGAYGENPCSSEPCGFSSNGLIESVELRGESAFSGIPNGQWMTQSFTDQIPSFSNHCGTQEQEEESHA
Sequence of N-glycosylase/DNA lyase (Homo sapiens) (O15527 whole entry): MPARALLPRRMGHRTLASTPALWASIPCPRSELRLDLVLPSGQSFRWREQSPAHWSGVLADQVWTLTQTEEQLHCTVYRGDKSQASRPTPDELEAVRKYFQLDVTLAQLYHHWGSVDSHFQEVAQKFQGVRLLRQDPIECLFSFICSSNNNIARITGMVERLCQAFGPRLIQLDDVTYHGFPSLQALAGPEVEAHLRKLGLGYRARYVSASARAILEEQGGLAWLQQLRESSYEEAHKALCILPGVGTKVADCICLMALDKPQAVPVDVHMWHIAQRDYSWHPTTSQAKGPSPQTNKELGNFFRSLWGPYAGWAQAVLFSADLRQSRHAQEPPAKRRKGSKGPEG
Sequence of Uracil-DNA glycosylase (Homo sapiens) (P13051 whole entry): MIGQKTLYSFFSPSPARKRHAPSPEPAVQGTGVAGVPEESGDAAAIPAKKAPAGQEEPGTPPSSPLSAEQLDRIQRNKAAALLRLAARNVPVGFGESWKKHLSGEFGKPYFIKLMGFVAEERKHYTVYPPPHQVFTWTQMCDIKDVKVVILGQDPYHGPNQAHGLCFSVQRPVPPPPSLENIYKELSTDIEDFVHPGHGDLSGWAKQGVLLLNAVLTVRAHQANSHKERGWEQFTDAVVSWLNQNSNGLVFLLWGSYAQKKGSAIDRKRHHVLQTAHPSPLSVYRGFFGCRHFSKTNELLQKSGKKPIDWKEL
Sequence of Methyl-CpG-binding domain protein 4 (Homo sapiens) (O95243 whole entry, the tested form may be a part): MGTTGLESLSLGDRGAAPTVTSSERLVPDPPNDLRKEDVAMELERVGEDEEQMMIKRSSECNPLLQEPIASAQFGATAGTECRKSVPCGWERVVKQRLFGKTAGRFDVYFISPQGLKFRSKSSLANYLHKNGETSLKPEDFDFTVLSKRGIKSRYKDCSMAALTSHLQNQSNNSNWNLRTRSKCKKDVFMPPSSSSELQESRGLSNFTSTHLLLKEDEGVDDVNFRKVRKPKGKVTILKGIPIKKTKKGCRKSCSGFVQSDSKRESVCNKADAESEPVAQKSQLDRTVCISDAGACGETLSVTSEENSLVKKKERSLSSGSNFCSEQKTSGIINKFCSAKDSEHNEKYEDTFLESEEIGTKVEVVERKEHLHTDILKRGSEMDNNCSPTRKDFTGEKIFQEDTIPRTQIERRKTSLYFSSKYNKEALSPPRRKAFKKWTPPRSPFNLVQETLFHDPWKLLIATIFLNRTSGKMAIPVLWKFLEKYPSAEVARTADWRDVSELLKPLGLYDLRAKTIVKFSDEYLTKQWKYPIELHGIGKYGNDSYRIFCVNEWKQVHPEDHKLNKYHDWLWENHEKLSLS

Row | inhibition [1, 9] [%] | inhibition ([2]; Compound Concentration 1.0 uM) [%] | inhibition ([3]; Compound Concentration 1.0 uM) [%] | inhibition ([4]; Compound Concentration 1.0 uM) [%] | inhibition ([5]; Compound Concentration 1.0 uM) [%] | inhibition ([6]; Compound Concentration 1.0 uM) [%] | inhibition ([7]; Compound Concentration 1.0 uM) [%] | inhibition ([8]; Compound Concentration 1.0 uM) [%] | inhibition [1, 10] [%] | inhibition ([2]; Compound Concentration 10.0 uM) [%] | inhibition ([3]; Compound Concentration 10.0 uM) [%] | inhibition ([4]; Compound Concentration 10.0 uM) [%] | inhibition ([5]; Compound Concentration 10.0 uM) [%] | inhibition ([6]; Compound Concentration 10.0 uM) [%] | inhibition ([7]; Compound Concentration 10.0 uM) [%] | inhibition ([8]; Compound Concentration 10.0 uM) [%] | inhibition ([1]; Compound Concentration 10.0 uM, Hit Yes) [%] | SMILES
1 | – | – | – | – | – | – | – | – | 34.6 | 6.6 | 7.63 | -5.14 | 39.5 | 48.6 | -6.1 | -6.23 | – | COc1ccc(-c2ccc3cc(C(=O)O)ccc3c2)cc1C12CC3CC(CC(C3)C1)C2
2 | – | – | – | – | – | – | – | – | 3.33 | 4.63 | 10.2 | 5.62 | 31.2 | 55.1 | 8.7 | 5.91 | – | Cc1cccc(CN2CCN(C(c3ccccc3)c3ccc(Cl)cc3)CC2)c1 (configuration not stated)
3 | – | – | – | – | – | – | – | – | 4.36 | -9.83 | 12.8 | -6.05 | 43.2 | 59.5 | – | 2.11 | – | COc1cccc(CNC(=O)c2nc3scc(CN(C)Cc4ccccc4)c3c(=O)[nH]2)c1
4 | – | – | – | – | – | – | – | – | -7.84 | 5.94 | 17 | – | 59.6 | 65.2 | -7.12 | 0.719 | – | O=C(Nc1cccnn1)N1CCC(=Cc2cccc(Oc3ccc(C(F)(F)F)cn3)c2)CC1
5 | – | – | – | – | – | – | – | – | -3.9 | 5.94 | 7.91 | – | 97.7 | 60.3 | -8.4 | -2.84 | – | Cc1cc(C)c(S(=O)(=O)N(Cc2ccc(-c3cccc(S(C)(=O)=O)c3)cc2)Cc2ccc(C(F)(F)F)o2)c(C)c1
6 | – | – | – | – | – | – | – | – | -0.41 | -0.63 | 13.1 | – | 97.2 | 55.1 | 1.3 | 0.131 | – | O=C(NCCS(=O)(=O)c1ccc(C(F)(F)F)cn1)c1ccc(Cl)cc1
7 | – | – | – | – | – | – | – | – | 8.39 | -7.86 | 16.2 | – | 31.5 | 52.3 | -8.14 | 1.41 | – | C[C@H](c1ccc(F)cc1)N(Cc1ccc(Cl)c(C(=O)O)c1)C(=O)c1cnc2ccccc2c1
8 | -9.75 | 0.685 | 15.2 | -7.26 | 52.8 | 67.1 | – | 0.879 | – | – | – | – | – | – | – | – | – | O=C(c1ccc(F)cc1)N1CC(COc2ccc(Br)cc2)(C(=O)O)C1
9 | – | 4.97 | 7.99 | – | 29.7 | 47.4 | -7.84 | 1.12 | 14.4 | -7.86 | 6.21 | – | 11.1 | 52.5 | – | -1.2 | – | COc1cnccc1Nc1nc(-c2nn(Cc3c(F)cc(OCCO)cc3F)c3ccccc23)ncc1OC
10 | – | – | – | – | – | – | – | – | 5.88 | 10.6 | 15.5 | – | 9.01 | 28.2 | -4.06 | 2.73 | – | CN([C@@H]1CCc2c(CC(=O)O)c3ccccc3n2C1)S(=O)(=O)c1ccc(F)cc1
11 | – | – | – | – | – | – | – | – | -1.34 | 5.94 | 15.5 | – | 99.9 | 54.2 | 0.531 | 1.51 | – | C[C@H](c1ccc(F)cc1)N(Cc1cccc(C(=O)O)c1)C(=O)c1cnc2ccccc2c1

Second part, the molecule before the results:

Row | SMILES | inhibition [1, 9] [%] | inhibition ([2]; Compound Concentration 1.0 uM) [%] | inhibition ([3]; Compound Concentration 1.0 uM) [%] | inhibition ([4]; Compound Concentration 1.0 uM) [%] | inhibition ([5]; Compound Concentration 1.0 uM) [%] | inhibition ([6]; Compound Concentration 1.0 uM) [%] | inhibition ([7]; Compound Concentration 1.0 uM) [%] | inhibition ([8]; Compound Concentration 1.0 uM) [%] | inhibition [1, 10] [%] | inhibition ([2]; Compound Concentration 10.0 uM) [%] | inhibition ([3]; Compound Concentration 10.0 uM) [%] | inhibition ([4]; Compound Concentration 10.0 uM) [%] | inhibition ([5]; Compound Concentration 10.0 uM) [%] | inhibition ([6]; Compound Concentration 10.0 uM) [%] | inhibition ([7]; Compound Concentration 10.0 uM) [%] | inhibition ([8]; Compound Concentration 10.0 uM) [%] | inhibition ([1]; Compound Concentration 10.0 uM, Hit Yes) [%]
12 | CN(C)C(=O)Cn1cc(-c2nc([C@@](C)(c3ccc(-c4cnc(N)nc4)cc3)C3CC3)no2)cn1 | -4.49 | -9.18 | 14.1 | -7.71 | 41 | 54.5 | -2.79 | 6.25 | – | – | – | – | – | – | – | – | –
13 | O=C(O)c1ccc2cc(-c3ccc(O)c(C45CC6CC(CC(C6)C4)C5)c3)ccc2c1 | – | – | – | – | – | – | – | – | – | -1.29 | 17.5 | -4.23 | 50.7 | 57.8 | -9.42 | 4.34 | 85.9
14 | COc1ccc2c(c1)O[C@@H](c1ccc(OC)c(OC)c1)C[C@H]2NC(=O)C1(c2ccc3c(c2)OC(F)(F)O3)CC1 | – | – | – | – | – | – | – | – | -6.31 | -7.86 | -5.34 | – | 25.6 | 35.4 | -1.51 | -6.88 | –
15 | O=C1NCN(c2ccccc2)C12CCN(CC1COc3ccccc3O1)CC2 (configuration not stated) | – | – | – | – | – | – | – | – | -5.28 | 2.66 | 1.76 | -5.84 | 2.98 | -3.04 | -3.23 | -8.19 | –
16 | CO[C@H]1CC[C@H](CNc2ccc(S(=O)(=O)NC(=O)c3ccc(N4CCN(CC5=C(c6ccc(Cl)cc6)CC(C)(C)CC5)CC4)cc3Oc3cnc4[nH]ccc4c3)cc2[N+](=O)[O-])CC1 | – | – | – | – | – | – | – | – | 62 | -7.86 | 17.9 | -6.8 | 47.9 | 55.7 | 2.57 | 3.44 | –
17 | O=C(O)c1ccnc(N2CC(O)(c3ccc(OCc4c(-c5c(Cl)cccc5Cl)noc4C4CC4)cc3Cl)C2)c1 | – | – | – | – | – | – | – | – | 35.5 | 5.29 | 16.5 | -4.99 | 97.2 | 54.3 | 3.34 | 4.51 | –
18 | O=c1nc(-c2ccccn2)sc2ccccc12 | – | – | – | – | – | – | – | – | 10.7 | 2 | 5.03 | – | 99.2 | 53.8 | 17.4 | -3.04 | –
19 | COc1c(OCCCN2CCOCC2)ccc2c1N=C(NC(=O)c1cnc(N)nc1)N1CCN=C21 | 5.38 | 4.97 | 20 | -8.98 | 26.4 | -2.38 | – | -3.63 | – | – | – | – | – | – | – | – | –
20 | C[C@H](c1ccnc(Nc2nc3ccc(-c4cc(N(C)C)ncn4)cc3[nH]2)c1)N1CCN(C(=O)CC(F)(F)F)CC1 | – | – | – | – | – | – | – | – | -2.48 | -3.92 | 11.6 | – | 87.4 | 37.6 | -5.59 | 1.7 | –
21 | CCCCCCCCCCCCC/C=C/[C@@H](O)[C@@H](N)COP(=O)([O-])OCC[N+](C)(C)C | – | – | – | – | – | – | – | – | 5.72 | -8.51 | -8.04 | – | – | -8.69 | -4.94 | -1 | –
22 | O=C(NCCCn1ccnc1)c1cc2nc(-c3ccccc3)cc(-c3ccccc3)n2n1 | – | – | – | – | – | – | – | – | -1.93 | -4.57 | 12 | – | 44.7 | 28.3 | -9.67 | 4.11 | –
23 | CCCCN(CCCC)C(=O)CN1C[C@H](c2cc(OC)c3c(c2)OCO3)[C@@H](C(=O)O)[C@@H]1CC(C)(C)CCC | 14.6 | 11.2 | 14.3 | – | 54.3 | 62.3 | -9.42 | -0.907 | – | – | – | – | – | – | – | – | –
24 | O=C1NC(c2ccccn2)Sc2ccccc21 (configuration not stated) | – | – | – | – | – | – | – | – | -4.34 | -7.2 | 8.24 | – | 34 | 55.9 | -4.83 | -1.67 | –
25 | CCOC(=O)c1ccc(CN(Cc2ccc(-c3cccc(S(C)(=O)=O)c3)cc2)S(=O)(=O)c2c(C)cc(C)cc2C)o1 | – | – | – | – | – | – | – | – | 0.574 | -3.26 | 14.1 | – | 35 | 46 | -7.63 | 0.52 | –
26 | CNC(=O)COc1cc2cc(Nc3nc(N4CCC(C(=O)N(C)C)CC4)ncc3Cl)cc(OC)c2n(C)c1=O | – | – | – | – | – | – | – | – | 4.56 | -0.63 | 3.52 | – | 86.8 | 50.6 | -6.1 | 0.116 | –
27 | CN(C)C(=O)Cn1cc(-c2nc(C3(c4ccc(-c5cnc(N)nc5)cc4)CC3)no2)cn1 | – | – | – | – | – | – | – | – | 28.7 | -5.89 | 11.1 | – | 43.7 | 22.8 | 0.0213 | 1.06 | –
28 | CN(C)C(=O)/C(C#N)=C/c1ccc(-c2nc3cnc4c(ccn4C)c3n2C2CCCCC2)o1 | -5.75 | 0.785 | 2.69 | – | 49.4 | 95 | -3.8 | -0.285 | – | – | – | – | – | – | – | – | –
